“Also recorded” adds a separate entry of the source.
Experiments:
[1] = MTT colorimetric assay, normal SVG p12 cells; details: human, SVG p12 cells (normal human brain astroglia), Cell viability (%) SVG p12, conc. 10 μM, 46 hours with drug, then 2 hours MTT, ratio to control group without drug
Source text: (§1) MTT (tetrazole) assay used to determine tumor viability is based on measurement of the activity of dehydrogenase to determine cell growth conditions. In live cells, dehydrogenase in active mitochondria converts yellow MTT [3-(4,5-dimethylthiazol-2-yl)-2,5-diphenyltetra zolium bromide] into purple formazan on the reductive cleavage of its tetrazolium ring. The formazan crystal is examined under the microscope. While the mitochondria in dead cells are without active dehydrogenase, no crystal is generated and the color remains yellow. After adding MTT into cell cultures and reacting for 2 hours, the amount of generated formazan precipitate is proportional to total amount of dehydrogenase. Removing the culture medium, add DMSO to dissolve the purple formazan precipitate. Then measure the absorbance of the precipitate by is measured by the spectrophotometer at 560/670 nm so as to learn inhibition effect of drugs acted on normal cells and tumor cells.
(§2) GBM 8401, GBM 8901 (human brain glioblastoma) and SVG p12 (human brain astroglia)cells line are selected to be used in 96 well petri dishes. Each well is filled into the same amount of cells-about 5000 cells per well. After being cultured for 24 hours and cells anchor/attach, the 96 wells are divided into two groups-an experimental group and a control group containing no samples. The samples are diluted into 10 μg/mL by culture medium. Take 200 μL of each sample and add into the experimental group and the control group is added with 200 μL culture medium without samples. After 46 hours of culture, each well is added with 10 μL MTT solution, incubate cells at 37° C., 5% CO2 for 2 hours.
(§3) Then each well is added with 100 μL, dissolving formazan. Shaking for 10 minutes and measure the absorbance at 560/670 nm of the sample by the spectrometer. The data of the experimental group is divided by the data of the control group to get the estimated cell viability.
(§4) Three cell lines-GBM 8401, GBM 8901, SVG p12 (normal) are used in cytotoxicity tests of 1,8-bis-substituted amidoanthraquinone. After reacting with the drug for 46 hours, the cells are reacted with certain amount of MTT solution. After 2 hours, DMSO is used to dissolve formazan and O.D. (optical density) at 560/670 nm is measured. Then calculate the radios of the experimental groups (with drugs) to the control groups (without drugs).

[2] = tested on: GBM 8901 (human brain glioblastoma) cells; test: MTT colorimetric assay, GBM 8901 cells; details: for viability at 10 µM: Homo sapiens, read-out: Cell viability (%) GBM 8901, conc. 10 μM; for inhibition of growth of tumor cells GBM 8901 (in words): primary screening, 10 μM, criterion viability less than 80%
Source text: as §1, §2, §3, §4

[3] = tested on: GBM 8401 (human brain glioblastoma) cells; test: MTT colorimetric assay, GBM 8401 cells; details: for viability at 10 µM: Homo sapiens, read-out: Cell viability (%) GBM 8401, conc. 10 μM; for inhibition of proliferation of tumor cells GBM 8401 (in words): primary screening, 10 μM, criterion viability less than 80%
Source text: as §1, §2, §3, §4

[4] = 46 hours with drug, then 2 hours MTT, ratio to control group without drug
[5] = conc. 10 μM, 46 hours with drug, then 2 hours MTT, ratio to control group without drug

| Molecule | melting point [°C] | viability at 46 h, 10 μM [1] [%] | viability at 10 µM [2, 4] [%] | viability at 10 µM [3, 4] [%] | Cell viability (%) GBM 8901 [2, 5] [%] | Cell viability (%) GBM 8401 [3, 5] [%] | inhibition of proliferation of tumor cells GBM 8401 (in words) [3] | inhibition of growth of tumor cells GBM 8901 (in words) [2] |
| --- | --- | --- | --- | --- | --- | --- | --- | --- |
| COC(=O)CNCC(=O)Nc1cccc2c1C(=O)c1c(NC(=O)CNCC(=O)OC)cccc1C2=O [Compound 3a, 1,8-Bis[2-(glycinmethyl ester)acetamido]anthraquinone] | 173 to 174 | 93 ± 6 | 104 ± 2 | 95 ± 10 | – | – | – | – |
| COC(=O)[C@H]1CCCN1CC(=O)Nc1cccc2c1C(=O)c1c(NC(=O)CN3CCC[C@H]3C(=O)OC)cccc1C2=O [Compound 3c, 1,8-Bis[2-(prolinemethyl ester)acetamido]anthraquinone] | 170 to 171 | 121 ± 5 | 96 ± 3 | 83 ± 15 | – | – | – | – |
| COC(=O)[C@@H](NCC(=O)Nc1cccc2c1C(=O)c1c(NC(=O)CN[C@@H](C(=O)OC)C(C)C)cccc1C2=O)C(C)C [Compound 3d, (L)-1,8-Bis[2-(valinemethyl ester)acetamido]anthraquinone] | 150 to 151 | 87 ± 7 | 97 ± 22 | 99 ± 40 | – | – | – | – |
| COC(=O)[C@H](C)NCC(=O)Nc1cccc2c1C(=O)c1c(NC(=O)CN[C@H](C)C(=O)OC)cccc1C2=O [Compound 3i, (D)-1,8-Bis[2-(alalinemethyl ester)acetamido]anthraquinone] | – | – | – | – | 99 ± 11 | 64 ± 13 | inhibit proliferation; also recorded: quite good inhibition effects | – |
| CC(C)CNCC(=O)Nc1cccc2c1C(=O)c1c(NC(=O)CNCC(C)C)cccc1C2=O [Compound 3k, 1,8-Bis[2-(isobutylamino)acetamido]anthraquinone] | – | – | 57 ± 16 | 95 ± 12 | – | – | – | inhibit growth |
| CN(C)CC(=O)Nc1cccc2c1C(=O)c1c(NC(=O)CN(C)C)cccc1C2=O [Compound 3m, 1,8-Bis[2-(dimethylamino)acetamido]anthraquinone] | – | > 80 | 84 ± 9 | 60 ± 5 | – | – | inhibit proliferation; also recorded: quite good inhibition effects | – |
| CCCN(CCC)CC(=O)Nc1cccc2c1C(=O)c1c(NC(=O)CN(CCC)CCC)cccc1C2=O [Compound 3n, 1,8-Bis[2-(dipropylamino)acetamido]anthraquinone] | – | 73 ± 30 | 73 ± 5 | 106 ± 24 | – | – | – | inhibit growth |
| CC(C)NCC(=O)Nc1cccc2c1C(=O)c1c(NC(=O)CNC(C)C)cccc1C2=O [Compound 3o, 1,8-Bis[2-(isopropylamino)acetamido]anthraquinone] | – | 4 ± 1 | 5 ± 1 | 4 ± 1 | – | – | inhibit proliferation; also recorded: quite good inhibition effects | inhibit growth |
| CCNCC(=O)Nc1cccc2c1C(=O)c1c(NC(=O)CNCC)cccc1C2=O [Compound 3p, 1,8-Bis[2-(ethanamino)acetamido]anthraquinone] | – | 3 ± 1 | 4 ± 1 | 2 ± 1 | – | – | inhibit proliferation; also recorded: quite good inhibition effects | inhibit growth |
| COC(=O)[C@H](COC(C)(C)C)NCC(=O)Nc1cccc2c1C(=O)c1c(NC(=O)CN[C@H](COC(C)(C)C)C(=O)OC)cccc1C2=O [Compound 3t, 1,8-Bis[2-(tert-butyl-serinemethyl ester)acetamido]anthraquinone] | – | > 80 | 69 ± 4 | 98 ± 19 | – | – | – | inhibit growth |
| (S)-1,8-Bis[2-(phenylglycin methyl ester)acetamido]anthraquinone [Compound 3j] | – | – | – | – | – | – | inhibit proliferation; also recorded: quite good inhibition effects | inhibit growth |

Source: US8053583B2, “Anti-cancer compound and manufacturing method thereof” (National Defense Medical Center, priority 2008, dated 2011)
